Experimental data published in the supplement of paper PMC10307832.

Columns and labels:
Assay in all cases: relative viability (nuclei count vs DMSO), 5 days (fraction); higher = more cells survive
SW 1573 = tested on: SW 1573
Summary of the method: (§1)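 Lung cancer cell lines in 1536-well plates were dosed by pin tool the day after seeding, either with one drug alone or with a fixed anchor-drug dose plus five library-drug doses (not always all listed) in √10 steps. After 5 days, cells were fixed and their nuclei stained in one step (final 0.05% Triton X-100, 1% formaldehyde, 1 ug/ml Hoechst), then counted on 4× images. Relative viability is the nuclei count in treated wells divided by that in vehicle wells. Values are medians of duplicate plates.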

LU99A = tested on: LU99A
Summary of the method: as §1

LC-2-ad = tested on: LC-2-ad
Summary of the method: as §1

NCI-H650 = tested on: NCI-H650
Summary of the method: as §1

NCI-H1437 = tested on: NCI-H1437
Summary of the method: as §1

NCI-H1734 = tested on: NCI-H1734
Summary of the method: as §1

SW 900 = tested on: SW 900
Summary of the method: as §1

NCI-H2023 = tested on: NCI-H2023
Summary of the method: as §1

BEN = tested on: BEN
Summary of the method: as §1

NCI-H2126 = tested on: NCI-H2126
Summary of the method: as §1

NCI-H2170 = tested on: NCI-H2170
Summary of the method: as §1

NCI-H727 = tested on: NCI-H727
Summary of the method: as §1

EMC-BAC-2 = tested on: EMC-BAC-2
Summary of the method: as §1

NCI-H1915 = tested on: NCI-H1915
Summary of the method: as §1

NCI-H1755 = tested on: NCI-H1755
Summary of the method: as §1

NCI-H3122 = tested on: NCI-H3122
Summary of the method: as §1

NCI-H358 = tested on: NCI-H358
Summary of the method: as §1

HOP-62 = tested on: HOP-62
Summary of the method: as §1

NCI-H1563 = tested on: NCI-H1563
Summary of the method: as §1

HCC-15 = tested on: HCC-15
Summary of the method: as §1

NCI-H1395 = tested on: NCI-H1395
Summary of the method: as §1

## Cc1csc(=NC2CCCCC2)n1/N=C/c1ccc(O)c(O)c1O [MIM1] + Cc1nc(Nc2ncc(C(=O)Nc3c(C)cccc3Cl)s2)cc(N2CCN(CCO)CC2)n1 [Dasatinib] (partner 0.075 µM)
SW 1573; first compound 0.2 µM
  relative viability: 0.557
SW 1573; first compound 0.6325 µM
  relative viability: 0.558
SW 1573; first compound 2 µM
  relative viability: 0.413
SW 1573; first compound 6.325 µM
  relative viability: 0.244
SW 1573; first compound 20 µM
  relative viability: 0.0901
LU99A; first compound 0.2 µM
  relative viability: 0.752
LU99A; first compound 0.6325 µM
  relative viability: 0.54
LU99A; first compound 2 µM
  relative viability: 0.48
LU99A; first compound 6.325 µM
  relative viability: 0.37
LU99A; first compound 20 µM
  relative viability: 0.21
LC-2-ad; first compound 0.2 µM
  relative viability: 0.834
LC-2-ad; first compound 0.6325 µM
  relative viability: 0.413
LC-2-ad; first compound 2 µM
  relative viability: 0.527
LC-2-ad; first compound 6.325 µM
  relative viability: 0.411
LC-2-ad; first compound 20 µM
  relative viability: 0.142
NCI-H650; first compound 0.2 µM
  relative viability: 0.496
NCI-H650; first compound 0.6325 µM
  relative viability: 0.435
NCI-H650; first compound 2 µM
  relative viability: 0.459
NCI-H650; first compound 6.325 µM
  relative viability: 0.416
NCI-H650; first compound 20 µM
  relative viability: 0.301
NCI-H1437; first compound 0.2 µM
  relative viability: 0.456
NCI-H1437; first compound 0.6325 µM
  relative viability: 0.406
NCI-H1437; first compound 2 µM
  relative viability: 0.55
NCI-H1437; first compound 6.325 µM
  relative viability: 0.285
NCI-H1437; first compound 20 µM
  relative viability: 0.151
NCI-H1734; first compound 0.2 µM
  relative viability: 0.453
NCI-H1734; first compound 0.6325 µM
  relative viability: 0.446
NCI-H1734; first compound 2 µM
  relative viability: 0.487
NCI-H1734; first compound 6.325 µM
  relative viability: 0.386
NCI-H1734; first compound 20 µM
  relative viability: 0.161
SW 900; first compound 0.2 µM
  relative viability: 0.619
SW 900; first compound 0.6325 µM
  relative viability: 0.804
SW 900; first compound 2 µM
  relative viability: 0.508
SW 900; first compound 6.325 µM
  relative viability: 0.449
SW 900; first compound 20 µM
  relative viability: 0.23
NCI-H2023; first compound 0.2 µM
  relative viability: 0.519
NCI-H2023; first compound 0.6325 µM
  relative viability: 0.719
NCI-H2023; first compound 2 µM
  relative viability: 0.435
NCI-H2023; first compound 6.325 µM
  relative viability: 0.249
NCI-H2023; first compound 20 µM
  relative viability: 0.0702
BEN; first compound 0.2 µM
  relative viability: 0.304
BEN; first compound 0.6325 µM
  relative viability: 0.308
BEN; first compound 2 µM
  relative viability: 0.348
BEN; first compound 6.325 µM
  relative viability: 0.378
BEN; first compound 20 µM
  relative viability: 0.158
NCI-H2126; first compound 0.2 µM
  relative viability: 0.679
NCI-H2126; first compound 0.6325 µM
  relative viability: 0.582
NCI-H2126; first compound 2 µM
  relative viability: 0.583
NCI-H2126; first compound 6.325 µM
  relative viability: 0.471
NCI-H2126; first compound 20 µM
  relative viability: 0.287
NCI-H2170; first compound 0.2 µM
  relative viability: 0.569
NCI-H2170; first compound 0.6325 µM
  relative viability: 0.498
NCI-H2170; first compound 2 µM
  relative viability: 0.73
NCI-H2170; first compound 6.325 µM
  relative viability: 0.382
NCI-H2170; first compound 20 µM
  relative viability: 0.172
NCI-H727; first compound 0.2 µM
  relative viability: 0.383
NCI-H727; first compound 0.6325 µM
  relative viability: 0.36
NCI-H727; first compound 2 µM
  relative viability: 0.276
NCI-H727; first compound 6.325 µM
  relative viability: 0.356
NCI-H727; first compound 20 µM
  relative viability: 0.267
EMC-BAC-2; first compound 0.2 µM
  relative viability: 0.218
EMC-BAC-2; first compound 0.6325 µM
  relative viability: 0.302
EMC-BAC-2; first compound 2 µM
  relative viability: 0.317
EMC-BAC-2; first compound 6.325 µM
  relative viability: 0.31
EMC-BAC-2; first compound 20 µM
  relative viability: 0.179
NCI-H1915; first compound 0.2 µM
  relative viability: 0.354
NCI-H1915; first compound 0.6325 µM
  relative viability: 0.293
NCI-H1915; first compound 2 µM
  relative viability: 0.325
NCI-H1915; first compound 6.325 µM
  relative viability: 0.269
NCI-H1915; first compound 20 µM
  relative viability: 0.187
NCI-H1755; first compound 0.2 µM
  relative viability: 0.467
NCI-H1755; first compound 0.6325 µM
  relative viability: 0.442
NCI-H1755; first compound 2 µM
  relative viability: 0.424
NCI-H1755; first compound 6.325 µM
  relative viability: 0.391
NCI-H1755; first compound 20 µM
  relative viability: 0.23
NCI-H3122; first compound 0.2 µM
  relative viability: 0.779
NCI-H3122; first compound 0.6325 µM
  relative viability: 0.717
NCI-H3122; first compound 2 µM
  relative viability: 0.882
NCI-H3122; first compound 6.325 µM
  relative viability: 0.325
NCI-H3122; first compound 20 µM
  relative viability: 0.122
NCI-H358; first compound 0.2 µM
  relative viability: 0.182
NCI-H358; first compound 0.6325 µM
  relative viability: 0.174
NCI-H358; first compound 2 µM
  relative viability: 0.179
NCI-H358; first compound 6.325 µM
  relative viability: 0.173
NCI-H358; first compound 20 µM
  relative viability: 0.126
HOP-62; first compound 0.2 µM
  relative viability: 0.579
HOP-62; first compound 0.6325 µM
  relative viability: 0.696
HOP-62; first compound 2 µM
  relative viability: 0.677
HOP-62; first compound 6.325 µM
  relative viability: 0.629
HOP-62; first compound 20 µM
  relative viability: 0.16
NCI-H1563; first compound 0.2 µM
  relative viability: 0.538
NCI-H1563; first compound 0.6325 µM
  relative viability: 0.508
NCI-H1563; first compound 2 µM
  relative viability: 0.43
NCI-H1563; first compound 6.325 µM
  relative viability: 0.524
NCI-H1563; first compound 20 µM
  relative viability: 0.488
HCC-15; first compound 0.2 µM
  relative viability: 0.635
HCC-15; first compound 2 µM
  relative viability: 0.57
HCC-15; first compound 6.325 µM
  relative viability: 0.359
HCC-15; first compound 20 µM
  relative viability: 0.101
NCI-H1395; first compound 0.2 µM
  relative viability: 0.504
NCI-H1395; first compound 0.6325 µM
  relative viability: 0.465
NCI-H1395; first compound 2 µM
  relative viability: 0.381
NCI-H1395; first compound 6.325 µM
  relative viability: 0.443
NCI-H1395; first compound 20 µM
  relative viability: 0.303
